ChEMBL document CHEMBL1201862, “PubChem BioAssay data set” (2004)
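Grown in 96-well plates, cells were treated for 48 hours with each compound at five concentrations. Insufficient inhibition: endpoint recorded as highest concentration tested. Abbreviation: GI50, concentration required for 50% inhibition of growth.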 The source made the active and inactive calls. No stated cut-off is given here; in the data, active = GI50 up to about 1.1 µM and inactive = higher.

Assays:
Assay in all cases: NCI tumour cell line growth inhibition, 48 h
MOLT-4 = tested on: MOLT-4
HCC 2998 = tested on: HCC 2998
HT-29 = tested on: HT-29
UO-31 = tested on: UO-31
HL-60 = tested on: HL-60
LOX IMVI = tested on: LOX IMVI
NCI-H522 = tested on: NCI-H522
OVCAR-3 = tested on: OVCAR-3
COLO 205 = tested on: COLO 205
A549 = tested on: A549
SR = tested on: SR
U-251 = tested on: U-251
HOP-92 = tested on: HOP-92
OVCAR-8 = tested on: OVCAR-8
A498 = tested on: A498
SF-295 = tested on: SF-295
RPMI-8226 = tested on: RPMI-8226
NCI/ADR-RES = tested on: NCI/ADR-RES
MDA-MB-435 = tested on: MDA-MB-435
HCT-116 = tested on: HCT-116

SMILES	GI50 (MOLT-4)	GI50 (HCC 2998)	GI50 (HT-29)	GI50 (UO-31)	GI50 (HL-60)	GI50 (LOX IMVI)	GI50 (NCI-H522)	GI50 (OVCAR-3)	GI50 (COLO 205)	GI50 (A549)	GI50 (SR)	GI50 (U-251)	GI50 (HOP-92)	GI50 (OVCAR-8)	GI50 (A498)	GI50 (SF-295)	GI50 (RPMI-8226)	GI50 (NCI/ADR-RES)	GI50 (MDA-MB-435)	GI50 (HCT-116)
CCOC(=O)/C=C/C(Br)=C(Br)/C=C/C(=O)OCC	1.83 µM (inactive)	20.6 µM (inactive)	14.8 µM (inactive)	10.7 µM (inactive)	5.85 µM (inactive)	2.52 µM (inactive)	2.12 µM (inactive)	12.1 µM (inactive)	16.4 µM (inactive)	22.5 µM (inactive)	7.8 µM (inactive)	14.6 µM (inactive)	19.1 µM (inactive)	4.79 µM (inactive)	26.9 µM (inactive)	14.8 µM (inactive)	2.59 µM (inactive)	11.4 µM (inactive)	7.13 µM (inactive)	2.77 µM (inactive)
O=C1O/C(=C(\Br)c2ccc([N+](=O)[O-])cc2)c2ccccc21	27.8 µM (inactive)	> 100 µM (inactive)	41.1 µM (inactive)	62.8 µM (inactive)	36.1 µM (inactive)	67.8 µM (inactive)	38.5 µM (inactive)	> 88.5 µM (inactive)	> 100 µM (inactive)	> 100 µM (inactive)	28.8 µM (inactive)	73.3 µM (inactive)	> 100 µM (inactive)	> 76.6 µM (inactive)	> 100 µM (inactive)	> 100 µM (inactive)	38.7 µM (inactive)	> 100 µM (inactive)	62.7 µM (inactive)	97.9 µM (inactive)
C=CCC(C(=O)O)c1ccccc1 (stereo not given)	> 100 µM (inactive)	> 100 µM (inactive)	> 100 µM (inactive)	> 100 µM (inactive)	> 100 µM (inactive)	> 100 µM (inactive)	> 100 µM (inactive)	> 100 µM (inactive)	> 100 µM (inactive)	> 100 µM (inactive)	> 100 µM (inactive)	> 100 µM (inactive)	> 100 µM (inactive)	> 100 µM (inactive)	> 100 µM (inactive)	> 100 µM (inactive)	> 100 µM (inactive)	> 100 µM (inactive)	> 100 µM (inactive)	> 100 µM (inactive)
COC(=O)c1c(O)ccc2c1c1c(n2CCc2ccccc2)C(=O)c2ccccc2C1=O	4.06 µM (inactive)	2.48 µM (inactive)	11.8 µM (inactive)	10.8 µM (inactive)	17.8 µM (inactive)	15.7 µM (inactive)	7.08 µM (inactive)	6.7 µM (inactive)	1.83 µM (inactive)	8.97 µM (inactive)	5.28 µM (inactive)	12.7 µM (inactive)	16.3 µM (inactive)	8.18 µM (inactive)	16.6 µM (inactive)	19.1 µM (inactive)	7.03 µM (inactive)	6.9 µM (inactive)	7.03 µM (inactive)	10.9 µM (inactive)
CC#CC(O)(C(=O)OC1CCCN(C)C1)C1=CC=CCC1 (stereo not given)	> 100 µM (inactive)	> 100 µM (inactive)	> 100 µM (inactive)	> 100 µM (inactive)	> 100 µM (inactive)	> 100 µM (inactive)	> 100 µM (inactive)	> 100 µM (inactive)	> 100 µM (inactive)	> 100 µM (inactive)	> 100 µM (inactive)	> 100 µM (inactive)	> 100 µM (inactive)	> 100 µM (inactive)	> 100 µM (inactive)	> 100 µM (inactive)	> 100 µM (inactive)	0.49 µM (active)	> 100 µM (inactive)	> 100 µM (inactive)
N#Cc1[nH]c(=O)n(-c2ccc([N+](=O)[O-])cc2)c1N	> 10 µM (inactive)	> 10 µM (inactive)	> 10 µM (inactive)	> 10 µM (inactive)	> 10 µM (inactive)	> 10 µM (inactive)	> 10 µM (inactive)	> 10 µM (inactive)	> 10 µM (inactive)	> 10 µM (inactive)	> 10 µM (inactive)	> 10 µM (inactive)	> 10 µM (inactive)	> 10 µM (inactive)	> 10 µM (inactive)	> 10 µM (inactive)	> 10 µM (inactive)	> 10 µM (inactive)	> 10 µM (inactive)	> 10 µM (inactive)
CC(C)Oc1cccc(N2C(CCc3c[nH]c4ccc(Br)cc34)=NS(=O)(=O)c3cnccc32)c1	14.8 µM (inactive)	60.4 µM (inactive)	26.2 µM (inactive)	3.64 µM (inactive)	23.3 µM (inactive)	59.7 µM (inactive)	27.9 µM (inactive)	51.3 µM (inactive)	17.9 µM (inactive)	29.2 µM (inactive)	35.3 µM (inactive)	64.6 µM (inactive)	17.5 µM (inactive)	51.2 µM (inactive)	35.4 µM (inactive)	25.7 µM (inactive)	24 µM (inactive)	44 µM (inactive)	46.2 µM (inactive)	20.3 µM (inactive)
